Values of other authors as cited in patent publication US12178851B2, “Methods for administering STING agonists” (GlaxoSmithKline Intellectual Property Development Limited, priority 2017, dated 2024).

Legend:
CT26 syngeneic model [1] = tested on: CT26 syngeneic model
CT26 syngeneic model [2] = conditions: 20 daily i.v. doses of 20 mg/kg, dosed 4 h after injection of the tumor cells

SMILES | maximally tolerated i.p. dose (CT26 syngeneic model [1]; mouse, in vivo, ip) [µmol/kg] | cytokine levels in tumor and blood (CT26 syngeneic model [1]; once at 500 ug/mouse i.p.) | tumor growth inhibition (CT26 syngeneic model [1]; once at 500 ug/mouse i.p., established tumors) | efficacy in CT26 model (CT26 syngeneic model [2])
Cc1ccc2c(=O)c3cccc(CC(=O)O)c3oc2c1C [DMXAA, 5,6-Dimethylxanthenone-4-Acetic Acid] | ~99 | high cytokine levels both in the tumor and the blood | potently inhibits tumor growth, leading to cures in mice | –
Nc1nc2c(ncn2[C@@H]2O[C@@H]3COP(=O)(O)O[C@H]4[C@@H](O)[C@H](n5cnc6c(N)ncnc65)O[C@@H]4COP(=O)(O)O[C@@H]2[C@@H]3O)c(=O)[nH]1 [2′3′-cGAMP] | – | – | – | some efficacy
